{
  "source": "paper PMC7594840",
  "about": "“Identification of histone deacetylase inhibitors with (arylidene)aminoxy scaffold active in uveal melanoma cell lines” (Journal of Enzyme Inhibition and Medicinal Chemistry, 2020)",
  "key": {"[1]": {"tested_on": "HDAC target genes (RAD54L, RAD51, CLU) in Mel270 cells", "assay": "QRT-PCR of mRNA levels of HDAC target genes, Mel270 cells", "format": "cell-based, human", "settings": "10 µM compound, 48 h, normalised to GAPDH", "experimental": "(§1) Finally, we determined if the treatment of UM cells 92.1 and Mel270 with our compounds could modify the mRNA levels of HDAC target genes. […]\n(§2) Figure 9. Modulation of RAD54L, RAD51 and CLU mRNA expression by the different compounds in UM cells 92.1 and Mel270. Cells were treated for 48 h with 10 µM compound or the corresponding amount of DMSO. Data, normalised to GAPDH housekeeping gene, are expressed as fold change relative to the DMSO control. Error bars represent SD of triplicates. One representative experiment is shown.\n(§3) Treatments with the compounds were performed with slight differences, according to the final use of the samples. For the cell viability assay with MTT, cells were seeded in 96-well flat-bottom plates in culture medium at 5 × 10^3 cells/well, whereas for cell cycle analysis and QRT-PCR cells were seeded in 24-well plates at 5 × 10^4 cells/well. The day after, a culture medium containing the appropriate amount of compounds or their solvent control DMSO was added, and treatments were carried out for the indicated time.\n(§4) To assess the modulation of gene expression, cells were harvested at 48 h of treatment and total RNA was isolated using the NucleoSpin RNA kit (Macherey-Nagel) and reverse-transcribed with the SuperScript III Reverse Transcriptase (Invitrogen). […] Expression levels of mRNAs relative to untreated control were calculated by the ΔΔCT method (Table 3)."}, "[2]": {"tested_on": "HDAC target genes (RAD54L, RAD51, CLU, DHRS2, CDKN1A) in 92.1 cells", "assay": "QRT-PCR of mRNA levels of HDAC target genes, 92.1 cells", "format": "cell-based, human", "settings": "10 µM compound, 48 h, normalised to GAPDH", "experimental": "as §1, §2, §3, §4"}, "Mel270 cells": {"tested_on": "Mel270 cells", "assay": "MTT cell viability assay, UM cell line Mel270", "format": "cell-based, human", "settings": "72 h treatment, compared with SAHA and LD10", "experimental": "(§5) The anti-proliferative effects of the most promising HDAC inhibitors, VS16, VS13, SN2, and LD10 were evaluated on human UM cell lines (92.1 and Mel270) and SAHA was used as a positive control. First, we assessed by MTT assay the cell viability after a 72 h treatment at different concentrations. […] Similar results were found for ovarian carcinoma cell line A2780 and to a lesser extent for SKOV3 (Supplementary Figure S2).\n(§6) Figure 7. MTT. In vitro cytotoxicity at the 72 h time point of the different compounds in human UM cell lines 92.1 and Mel270, as assessed by the MTT cell viability assay. Data are expressed as percent of control with the DMSO solvent, which was used at the same amount present in the highest compound concentration. Error bars represent SD of quadruplicates. One representative experiment is shown.\nas §3\n(§7) Cell viability after treatment was evaluated by a microculture tetrazolium reduction assay using MTT [3–(4,5-dimethyltiazol-2-yl) 2,5-diphenyltetrazolium bromide; Sigma]. At 72 h of treatment, 20 μl of MTT stock solution (2 mg/ml in PBS) were added to 200 μl cell cultures for an additional 4 h of incubation. MTT-containing culture medium was then removed and precipitated formazan was dissolved in 100 μl of DMSO. Results were read within 15 min in a microplate reader spectrometer at 540 nm (MEDGENIX 400 ATC, Medgenix Diagnostics), and the means of quadruplicates were calculated. Cell survival was expressed as a percentage of control samples."}, "[3]": {"tested_on": "HeLa nuclear extract containing a mixture of HDACs", "assay": "HDAC Fluorimetric Assay/Drug Discovery Kit (BIOMOL) on HeLa nuclear extract", "format": "biochemical", "method": "The hydroxamic acids 1a–c, 2a–f and carboxylic acids 3a–c, 4a––e synthesised in this study were preliminarily tested on a HeLa nuclear extract containing a mixture of HDACs, by using a commercially available HDAC assay kit (BIOMOL). SAHA and Trichostatin A (TSA) were used as positive controls.\nHDAC inhibitory activity of newly synthesised compounds was evaluated using an HDAC Fluorimetric Assay/Drug Discovery Kit (AK-500, BIOMOL). […] Reactions were stopped after 30 min by adding Fluor de Lys^TM Developer. After the addition of this developer, the plate was incubated at room temperature for 15 min, the fluorescence intensity of the wells was measured on a fluorometric plate reader with excitation set at 360 nm and emission detection set at 460 nm."}, "92.1 cells": {"tested_on": "92.1 cells", "assay": "MTT cell viability assay, UM cell line 92.1", "format": "cell-based, human", "settings": "72 h treatment, compared with SAHA and LD10", "experimental": "as §5, §6, §3, §7"}, "HDAC8": {"target": "T1, HDAC8 (Homo sapiens, UniProt Q9BY41)", "T1 construct": "purchased BPS Bioscience", "T1 sequence (Q9BY41 1-377)": "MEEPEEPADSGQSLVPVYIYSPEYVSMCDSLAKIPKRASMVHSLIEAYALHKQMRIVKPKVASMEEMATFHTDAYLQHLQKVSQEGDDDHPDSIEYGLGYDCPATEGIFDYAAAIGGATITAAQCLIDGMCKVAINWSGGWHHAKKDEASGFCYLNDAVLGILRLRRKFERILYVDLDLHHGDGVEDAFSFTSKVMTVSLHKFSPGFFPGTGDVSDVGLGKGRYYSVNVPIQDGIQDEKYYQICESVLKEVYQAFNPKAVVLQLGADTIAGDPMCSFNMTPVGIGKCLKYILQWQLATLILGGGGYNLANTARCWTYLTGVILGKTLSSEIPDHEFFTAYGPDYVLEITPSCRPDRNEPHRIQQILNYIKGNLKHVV", "assay": "Microfluidic chip-based HDAC inhibition assay (Calliper off-chip mobility shift), HDAC8", "format": "biochemical", "settings": "duplicate, 10-point dose curve, 3-fold serial dilution from 30 μM", "from_the_text": "Test compounds were screened against human histone deacetylases (HDACs) 1, 3, 6, and 8 using the Calliper off-chip mobility shift assay technology. All HDACs were purchased from BPS Bioscience and four selective substrates were used according to the targeted isozyme. […] Buffers components, except for CR-3 (LabChip Coating Reagent 3, purchased from PerkinElmer, Product Number 760050) and Panobinostat (LBH589, purchased from ApexBio Technology)[35]^,[36] were purchased from Sigma Aldrich. […] (all purchased from Selleck Chemicals)."}},
  "data": [
    {"compound": "O=C(CCCCO/N=C/c1cnc2ccccc2c1)NO", "note": "[Compound 2f, (E)-N-hydroxy-5-(((quinolin-3-ylmethylene)amino)oxy)pentanamide]", "values": [
      {"measurement": "modulation of mRNA levels of HDAC target genes", "setting": "[1]", "result": "induced a pattern of gene modulation, which overlapped that of SAHA"},
      {"measurement": "modulation of mRNA levels of HDAC target genes", "setting": "[2]", "result": "induced a pattern of gene modulation, which overlapped that of SAHA"},
      {"measurement": "effect on cell viability (MTT)", "setting": "Mel270 cells", "result": "stronger effect"},
      {"measurement": "folds more potent than SAHA", "setting": "[3]; HeLa extract IC50 compared with SAHA", "result": "3- to 5 fold"},
      {"measurement": "IC50", "setting": "[3]; means of at least three experiments, SD <20% of the mean", "result": 0.054, "unit": "µM"},
      {"measurement": "effect on cell viability (MTT)", "setting": "92.1 cells", "result": "stronger effect"},
      {"measurement": "IC50", "setting": "HDAC8", "result": 9.29, "unit": "µM"}
    ]}
  ]
}
